Laboratory results taken from the supplement of paper PMC11451515.

Test system: SEM cells
Assay: cell viability relative to DMSO control; higher = less cytotoxic
Conditions: 48 h
In short: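 Cells were incubated for 48 h at 37°C before CellTiter-Glo One luminescence was read. The cells were NOMO1 or SEM (500 cells/well) or P12-Ichikawa (1000 cells/well) leukemia cells, adapted for at least four passages in each medium and seeded in 1536-well plates (5 μl). Dosing used library compounds in DMSO applied by pin over 11 threefold points, 47 μM to 0.79 nM. Viability is the per-plate percentage of DMSO wells, with cell-free wells as background.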

[1] = HPLM + 10% dialyzed FBS, 0.000781 µM
[2] = HPLM + 10% dialyzed FBS, 0.00234 µM
[3] = HPLM + 10% dialyzed FBS, 0.00702 µM
[4] = HPLM + 10% dialyzed FBS, 0.0211 µM
[5] = HPLM + 10% dialyzed FBS, 0.0632 µM
[6] = HPLM + 10% dialyzed FBS, 0.19 µM
[7] = HPLM + 10% dialyzed FBS, 0.569 µM
[8] = HPLM + 10% dialyzed FBS, 1.71 µM
[9] = HPLM + 10% dialyzed FBS, 5.12 µM
[10] = HPLM + 10% dialyzed FBS, 15.4 µM
[11] = HPLM + 10% dialyzed FBS, 46.1 µM
[12] = RPMI 5 mM glucose + 10% FBS, 0.000781 µM
[13] = RPMI 5 mM glucose + 10% FBS, 0.00234 µM
[14] = RPMI 5 mM glucose + 10% FBS, 0.00702 µM
[15] = RPMI 5 mM glucose + 10% FBS, 0.0211 µM
[16] = RPMI 5 mM glucose + 10% FBS, 0.0632 µM
[17] = RPMI 5 mM glucose + 10% FBS, 0.19 µM
[18] = RPMI 5 mM glucose + 10% FBS, 0.569 µM
[19] = RPMI 5 mM glucose + 10% FBS, 1.71 µM
[20] = RPMI 5 mM glucose + 10% FBS, 5.12 µM
[21] = RPMI 5 mM glucose + 10% FBS, 15.4 µM
[22] = RPMI 5 mM glucose + 10% FBS, 46.1 µM
[23] = RPMI 5 mM glucose + 10% dialyzed FBS, 0.000781 µM
[24] = RPMI 5 mM glucose + 10% dialyzed FBS, 0.00234 µM
[25] = RPMI 5 mM glucose + 10% dialyzed FBS, 0.00702 µM
[26] = RPMI 5 mM glucose + 10% dialyzed FBS, 0.0211 µM
[27] = RPMI 5 mM glucose + 10% dialyzed FBS, 0.0632 µM
[28] = RPMI 5 mM glucose + 10% dialyzed FBS, 0.19 µM
[29] = RPMI 5 mM glucose + 10% dialyzed FBS, 0.569 µM
[30] = RPMI 5 mM glucose + 10% dialyzed FBS, 1.71 µM
[31] = RPMI 5 mM glucose + 10% dialyzed FBS, 5.12 µM
[32] = RPMI 5 mM glucose + 10% dialyzed FBS, 15.4 µM
[33] = RPMI 5 mM glucose + 10% dialyzed FBS, 46.1 µM

SMILES | cell viability [1] | cell viability [2] | cell viability [3] | cell viability [4] | cell viability [5] | cell viability [6] | cell viability [7] | cell viability [8] | cell viability [9] | cell viability [10] | cell viability [11] | cell viability [12] | cell viability [13] | cell viability [14] | cell viability [15] | cell viability [16] | cell viability [17] | cell viability [18] | cell viability [19] | cell viability [20] | cell viability [21] | cell viability [22] | cell viability [23] | cell viability [24] | cell viability [25] | cell viability [26] | cell viability [27] | cell viability [28] | cell viability [29] | cell viability [30] | cell viability [31] | cell viability [32] | cell viability [33]
Cc1[nH]c(/C=C2\C(=O)Nc3ccccc32)c(C)c1CCC(=O)O | 55% | 85.6% | 76.3% | 81.6% | 68.9% | 84% | 6.38% | 32.1% | 26.4% | 26.5% | 18.7% | 71.9% | 97.7% | 108% | 82.6% | 82.4% | 86.9% | 6.07% | 37.1% | 39.1% | 30.9% | 18.3% | 47.4% | 82% | 80.5% | 76.1% | 75.5% | 83.3% | 5.75% | 26.5% | 27.6% | 22% | 15.4%
CN[C@@H]1Cc2cccc3[nH]c(=O)n(c23)C1 | 108% | 119% | 105% | 121% | 98.8% | 100% | 110% | 103% | 104% | 92.8% | 95.4% | – | – | – | – | – | – | – | – | – | – | – | – | – | – | – | – | – | – | – | – | – | –
Cc1csc(NC(=O)c2sc3nc4c(c(C(F)(F)F)c3c2N)CCC4)n1 | 82% | 96.7% | 93.6% | 81.8% | 108% | 86.6% | 96% | 101% | 81.1% | 70.2% | 89.3% | 82.1% | 99.9% | 89.7% | 107% | 92.2% | 104% | 106% | 97.1% | 84% | 73.1% | 79% | 84.4% | 96.8% | 106% | 80.8% | 92.9% | 99.3% | 89.6% | 97% | 76.6% | 69.9% | 69.9%
CC1(C)CNc2cc(NC(=O)c3cccnc3NCc3ccncc3)ccc21 | 118% | 118% | 121% | 112% | 102% | 104% | 92.4% | 101% | 96.3% | 93% | 13.2% | 85.4% | 70.9% | 87.7% | 79.4% | 79.7% | 79.4% | 73.9% | 75.4% | 78.1% | 70.1% | 12.9% | 111% | 112% | 105% | 128% | 125% | 100% | 102% | 91.1% | 79.2% | 90.6% | 7.67%
OC(=O)C(CC/1=C/C(=O)NC2=CC=CC=C12)NC(=O)C3=CC=C(Cl)C=C3 (stereo unspecified) | 94.7% | 93.9% | 108% | 106% | 108% | 107% | 116% | 105% | 121% | 121% | 112% | 113% | 109% | 106% | 113% | 133% | 112% | 116% | 112% | 121% | 126% | 104% | 120% | 105% | 126% | 130% | 118% | 119% | 135% | 117% | 131% | 119% | 120%
COc1ccc(C2Sc3ccccc3N(CCN(C)C)C(=O)C2OC(C)=O)cc1 (stereo unspecified) | 99.2% | 111% | 106% | 115% | 113% | 117% | 115% | 112% | 106% | 112% | 108% | 113% | 109% | 86% | 99.4% | 103% | 111% | 111% | 105% | 99.2% | 110% | 69% | 87.2% | 112% | 99.6% | 101% | 107% | 115% | 107% | 109% | 124% | 95.5% | 85.8%
C[C@@H](NC(=O)c1ncnc(N)c1Cl)c1ncc(C(=O)Nc2cc(C(F)(F)F)c(Cl)cn2)s1 | – | – | – | – | – | – | – | – | – | – | – | 113% | 119% | 105% | 127% | 125% | 126% | 127% | 121% | 121% | 112% | 106% | 123% | 128% | 112% | 126% | 139% | 134% | 135% | 137% | 131% | 119% | 96.2%
C[C@]12CC[C@H]3[C@@H](CCC/4=C/C(=O)CC[C@]34C)[C@@H]1CC[C@@H]2O | 94.2% | 120% | 124% | 128% | 118% | 139% | 122% | 120% | 136% | 125% | 130% | 107% | 110% | 118% | 112% | 139% | 129% | 118% | 133% | 140% | 157% | 109% | 129% | 113% | 120% | 121% | 112% | 130% | 153% | 134% | 130% | 131% | 145%
